Marks after values point to notes of the source that are not given here.
Test system: high fat diet fed rats
Assay: Anti-obesity activity, high fat diet in rats
Assay type: in vivo, Wistar rats
Details: Group III: high fat diet + orlistat 30 mg/kg
Experimental: Objective: The objective was to investigate the effect of the CGA-7 complex against high fat diet fed rats. Model: High fat diet in rats […] Male Wistar rats were divided into six groups with six animals in each group. [table] Body weight was measured once every 2 days. Food intake was measured daily for 42 days. On day 43, all the animals were kept overnight fasting before sacrifice. Blood was collected by puncturing the retro orbital plexus. Serum was separated by centrifugation at 3000 rpm for 10 minutes. Serum was estimated for glucose, cholesterol, triglycerides and HDL. LDL and atherogenic index were also calculated. Liver, mesenteric, brown adipose tissue (BAT), left and right perirenal fat pads, left and right epididymal pads were isolated and weighed. Liver was isolated and estimated for liver triglycerides and cholesterol levels.

## CCCCCCCCCCC[C@@H](C[C@@H]1OC(=O)[C@H]1CCCCCC)OC(=O)[C@H](CC(C)C)NC=O [orlistat, Orlistat]
  liver cholesterol: 49.66 ± 3.28***^b
  liver triglycerides: 64.64 ± 3.44***^b
42 days
  Average food intake: 8.54 ± 0.40^nsb g/rat
  BAT: 0.19 ± 0.01**^b
  Difference in body weight: 88.01 ± 3.68***^b
  Epididymal fat pad Left: 0.50 ± 0.01**^b
  Epididymal fat pad Right: 0.48 ± 0.01*^b
  Liver organ weight: 3.47 ± 0.11***^b
  Mesenteric fat: 0.98 ± 0.03*^b
  Peri renal fat pad tissue Left: 0.61 ± 0.05*^b
  Peri renal fat pad tissue Right: 0.65 ± 0.04*^b
baseline, in g (unit assumed)
  Initial weight: 130.3 ± 0.56
calculated
  Atherogenic Index: 2.20 ± 0.20***^b
Day 43
  serum Glucose: 109.7 ± 3.93**^b mg/dL
  serum HDL-c: 20.47 ± 1.08*^b mg/dL
  serum Total cholesterol: 63.38 ± 0.95***^b mg/dL
  serum Triglyceride: 77.63 ± 4.27***^b mg/dL
Day 43, calculated
  serum LDL-c: 27.39 ± 1.07^nsb mg/dL
Male Wistar rats, 42 days, in g (unit assumed)
  Final weight: 218.4 ± 2.65
